In patent US20170057917A1, “Polymorphs of Lomitapide and its Salts” (Hetero Research Foundation, priority 2014, published 2017) one finds hygroscopicity data, which are given here for 1 molecule.

The data set can be described thus: Hygroscopicity of the amorphous form. Type of data set: physicochemical. Particulars: solid amorphous form; normally amorphous Forms are hygroscopic.

For the molecule `CS(=O)(=O)O.O=C(NC1CCN(CCCCC2(C(=O)NCC(F)(F)F)c3ccccc3-c3ccccc32)CC1)c1ccccc1-c1ccc(C(F)(F)F)cc1` [Amorphous Lomitapide mesylate], the hygroscopicity entry is “non-hygroscopic”.
